Target: T1, Human M4 (Homo sapiens, UniProt P08173)
T1 construct: expressed in transfected cells
T1 sequence (P08173 1-479): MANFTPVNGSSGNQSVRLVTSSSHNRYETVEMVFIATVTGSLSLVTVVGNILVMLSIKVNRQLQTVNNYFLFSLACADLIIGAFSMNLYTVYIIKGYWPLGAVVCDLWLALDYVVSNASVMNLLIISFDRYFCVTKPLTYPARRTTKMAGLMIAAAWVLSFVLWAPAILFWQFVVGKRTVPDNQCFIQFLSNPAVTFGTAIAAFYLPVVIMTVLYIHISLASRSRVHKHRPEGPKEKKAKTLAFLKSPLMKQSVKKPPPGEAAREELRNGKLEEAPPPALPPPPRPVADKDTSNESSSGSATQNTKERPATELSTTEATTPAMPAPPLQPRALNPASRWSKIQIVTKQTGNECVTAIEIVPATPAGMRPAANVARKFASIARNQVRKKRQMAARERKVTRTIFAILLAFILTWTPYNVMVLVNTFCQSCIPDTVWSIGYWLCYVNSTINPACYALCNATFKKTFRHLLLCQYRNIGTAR
Assay: mAChR M4 cell-based functional assay (calcium flux, potentiation of EC20 acetylcholine response), hM4-Gqi5 CHO-K1 cells
Conditions: for Emax at 30 µM: CHO-K1, % ACh maximum at 30 μM, human M4, read-out: Emax; for EC50: hM4-Gqi5 CHO-K1 cells, calcium flux, PAM of EC20 acetylcholine, read-out: Human M4 EC50
Protocol: Human and rat M4 cDNAs, along with the chimeric G protein Gqi5, were transfected into Chinese hamster ovary (CHO-K1) cells purchased from the American Type Culture Collection using Lipofectamine2000. hM4-Gqi5 cells were grown in Ham's F-12 medium containing 10% heat-inactivated fetal bovine serum (FBS), 20 mM HEPES, 50 μg/mL G418 sulfate, and 500 μg/mL Hygromycin B. rM4-Gqi5 cells were grown in DMEM containing 10% heat-inactivated FBS, 20 mM HEPES, 400 μg/mL G418 sulfate, and 500 μg/mL Hygromycin B.
For high throughput measurement of agonist-evoked increases in intracellular calcium, CHO-K1 cells stably expressing muscarinic receptors were plated in growth medium lacking G418 and hygromycin at 15,000 cells/20 μL/well in Greiner 384-well black-walled, tissue culture (TC)-treated, clear-bottom plates (VWR). Cells were incubated overnight at 37° C. and 5% CO2. The next day, cells were washed using an ELX 405 (BioTek) with assay buffer; the final volume was then aspirated to 20 μL. Next, 20 μL of a 2.3 μM stock of Fluo-4/acetoxymethyl ester (Invitrogen, Carlsbad, CA), prepared as a 2.3 mM stock in DMSO and mixed in a 1:1 ratio with 10% (w/v) Pluronic F-127 and diluted in assay buffer, was added to the wells and the cell plates were incubated for 50 min at 37° C. and 5% CO2. Dye was removed by washing with the ELX 405 and the final volume was aspirated to 20 μL. Compound master plates were formatted in an 11 point concentration-response curve (CRC) format (1:3 dilutions) in 100% DMSO with a starting concentration of 10 mM using a BRAVO liquid handler (Agilent). Test compound CRCs were then transferred to daughter plates (240 nL) using the Echo acoustic plate reformatter (Labcyte, Sunnyvale, CA) and then diluted into assay buffer (40 μL) to a 2× stock using a Thermo Fisher Combi (Thermo Fisher Scientific, Waltham, MA).
Calcium flux was measured using the Functional Drug Screening System (FDSS) 6000 or 7000 (Hamamatsu Corporation, Tokyo, Japan) as an increase in the fluorescent static ratio. Compounds were applied to cells (20 μL, 2×) using the automated system of the FDSS at 2-4 seconds into the protocol and the data were collected at 1 Hz. At 144 seconds, 10 μL of an EC20 concentration of the muscarinic receptor agonist acetylcholine was added (5×), followed by the addition of 12 μL of an EC80 concentration of acetylcholine at the 230 second time point (5×). Agonist activity was analyzed as a concentration-dependent increase in calcium mobilization upon compound addition. Positive allosteric modulator activity was analyzed as a concentration-dependent increase in the EC20 acetylcholine response. Antagonist activity was analyzed as a concentration-dependent decrease in the EC80 acetylcholine response. Concentration-response curves were generated using a four-parameter logistical equation in XLFit curve fitting software (IDBS, Bridgewater, NJ) for Excel (Microsoft, Redmond, WA) or Prism (GraphPad Software, Inc., San Diego, CA).
Compounds were synthesized as described above. Activity (EC50 and Emax) was determined in the mAChR M4 cell-based functional assay as described above and the data are shown in Tables 2-4. The compound number corresponds to the compound numbers used in Table 1.

Row | Emax at 30 µM [%] | EC50 [nM] | SMILES
1 | 64 | 611 | Cc1c(N2CCc3ncc(Nc4c(F)cccc4C#N)cc3C2)nn2cnnc2c1C [Compound 46, 2-[[6-(7,8-dimethyl-[1,2,4]triazolo[4,3-b]pyridazin-6-yl)-7,8-dihydro-5H-1,6-naphthyridin-3-yl]amino]-3-fluoro-benzonitrile]
2 | 80 | 92.1 | Cc1c(N2CCc3ncc(Nc4c(F)cccc4F)cc3C2)nn2cnnc2c1C [Compound 47, N-(2,6-difluorophenyl)-6-(7,8-dimethyl-[1,2,4]triazolo[4,3-b]pyridazin-6-yl)-7,8-dihydro-5H-1,6-naphthyridin-3-amine]
3 | 80 | 147 | Cc1ccc(Nc2cnc3c(c2)CN(c2nn4cnnc4c(C)c2C)CC3)c(F)c1 [Compound 48, 6-(7,8-dimethyl-[1,2,4]triazolo[4,3-b]pyridazin-6-yl)-N-(2-fluoro-4-methyl-phenyl)-7,8-dihydro-5H-1,6-naphthyridin-3-amine]
4 | 82 | 82.4 | Cc1c(N2CCc3ncc(Nc4cccc(F)c4F)cc3C2)nn2cnnc2c1C [Compound 49, N-(2,3-difluorophenyl)-6-(7,8-dimethyl-[1,2,4]triazolo[4,3-b]pyridazin-6-yl)-7,8-dihydro-5H-1,6-naphthyridin-3-amine]
5 | 85 | 211 | Cc1c(N2CCc3ncc(Nc4ccccc4Cl)cc3C2)nn2cnnc2c1C [Compound 50, N-(2-chlorophenyl)-6-(7,8-dimethyl-[1,2,4]triazolo[4,3-b]pyridazin-6-yl)-7,8-dihydro-5H-1,6-naphthyridin-3-amine]
6 | 67 | 402 | Cc1c(N2CCc3ncc(Nc4ccccc4N(C)C)cc3C2)nn2cnnc2c1C [Compound 51, N1-[6-(7,8-dimethyl-[1,2,4]triazolo[4,3-b]pyridazin-6-yl)-7,8-dihydro-5H-1,6-naphthyridin-3-yl]-N2,N2-dimethyl-benzene-1,2-diamine]
7 | 76 | 381 | Cc1c(N2CCc3ncc(Nc4ccccc4C#N)cc3C2)nn2cnnc2c1C [Compound 52, 2-[[6-(7,8-dimethyl-[1,2,4]triazolo[4,3-b]pyridazin-6-yl)-7,8-dihydro-5H-1,6-naphthyridin-3-yl]amino]benzonitrile]
8 | 91 | 86.1 | Cc1ccccc1Nc1cnc2c(c1)CN(c1nn3cnnc3c(C)c1C)CC2 [Compound 53, 6-(7,8-dimethyl-[1,2,4]triazolo[4,3-b]pyridazin-6-yl)-N-(o-tolyl)-7,8-dihydro-5H-1,6-naphthyridin-3-amine]
9 | 90 | 152 | COc1ccccc1Nc1cnc2c(c1)CN(c1nn3cnnc3c(C)c1C)CC2 [Compound 54, 6-(7,8-dimethyl-[1,2,4]triazolo[4,3-b]pyridazin-6-yl)-N-(2-methoxyphenyl)-7,8-dihydro-5H-1,6-naphthyridin-3-amine]
10 | 85 | 241 | CSc1ccccc1Nc1cnc2c(c1)CN(c1nn3cnnc3c(C)c1C)CC2 [Compound 55, 6-(7,8-dimethyl-[1,2,4]triazolo[4,3-b]pyridazin-6-yl)-N-(2-methylsulfanylphenyl)-7,8-dihydro-5H-1,6-naphthyridin-3-amine]
11 | 91 | – | Cc1c(N2CCc3ncc(C(=O)N4CCCC4)cc3C2)nn2cnnc2c1C [Compound 56, [6-(7,8-dimethyl-[1,2,4]triazolo[4,3-b]pyridazin-6-yl)-7,8-dihydro-5H-1,6-naphthyridin-3-yl]-pyrrolidin-1-yl-methanone]
12 | 60 | 7750 | Cc1c(N2CCc3ncc(C(=O)NC4CC4)cc3C2)nn2cnnc2c1C [Compound 57, N-cyclopropyl-6-(7,8-dimethyl-[1,2,4]triazolo[4,3-b]pyridazin-6-yl)-7,8-dihydro-5H-1,6-naphthyridine-3-carboxamide]
13 | 51 | – | Cc1c(N2CCc3ncc(C(=O)N4CCOCC4)cc3C2)nn2cnnc2c1C [Compound 58, [6-(7,8-dimethyl-[1,2,4]triazolo[4,3-b]pyridazin-6-yl)-7,8-dihydro-5H-1,6-naphthyridin-3-yl]-morpholino-methanone]
14 | 89 | 695 | Cc1c(N2CCc3ncc(C(=O)Nc4ccccc4F)cc3C2)nn2cnnc2c1C [Compound 59, 6-(7,8-dimethyl-[1,2,4]triazolo[4,3-b]pyridazin-6-yl)-N-(2-fluorophenyl)-7,8-dihydro-5H-1,6-naphthyridine-3-carboxamide]
15 | 82 | 180 | Cc1ncc(-c2cnc3c(c2)CN(c2nn4cnnc4c(C)c2C)CC3)s1 [Compound 60, 5-[6-(7,8-dimethyl-[1,2,4]triazolo[4,3-b]pyridazin-6-yl)-7,8-dihydro-5H-1,6-naphthyridin-3-yl]-2-methyl-thiazole]
16 | 89 | 171 | Cc1nc(C)c(-c2cnc3c(c2)CN(c2nn4cnnc4c(C)c2C)CC3)s1 [Compound 61, 5-[6-(7,8-dimethyl-[1,2,4]triazolo[4,3-b]pyridazin-6-yl)-7,8-dihydro-5H-1,6-naphthyridin-3-yl]-2,4-dimethyl-thiazole]
17 | 108 | 92.9 | Cc1c(N2CCc3ncc(C(C)(C)O)cc3C2)nn2cnnc2c1C [Compound 62, 2-[6-(7,8-Dimethyl-[1,2,4]triazolo[4,3-b]pyridazin-6-yl)-7,8-dihydro-5H-1,6-naphthyridin-3-yl]propan-2-ol]
18 | 94 | 262 | Cc1c(N2CCc3ncc(-c4cnn(Cc5ccccc5)c4)cc3C2)nn2cnnc2c1C [Compound 63, 3-(1-benzylpyrazol-4-yl)-6-(7,8-dimethyl-[1,2,4]triazolo[4,3-b]pyridazin-6-yl)-7,8-dihydro-5H-1,6-naphthyridine]
19 | 96 | 788 | Cc1c(N2CCc3ncc(Nc4c(F)cccc4Cl)cc3C2)nn2cnnc2c1C [Compound 64, N-(2-chloro-6-fluoro-phenyl)-6-(7,8-dimethyl-[1,2,4]triazolo[4,3-b]pyridazin-6-yl)-7,8-dihydro-5H-1,6-naphthyridin-3-amine]
20 | 104 | 188 | COc1cccc(Nc2cnc3c(c2)CN(c2nn4cnnc4c(C)c2C)CC3)c1F [Compound 65, 6-(7,8-dimethyl-[1,2,4]triazolo[4,3-b]pyridazin-6-yl)-N-(2-fluoro-3-methoxy-phenyl)-7,8-dihydro-5H-1,6-naphthyridin-3-amine]
21 | 95 | 882 | Cc1c(N2CCc3ncc(Nc4cccc(C(F)(F)F)c4F)cc3C2)nn2cnnc2c1C [Compound 66, 6-(7,8-dimethyl-[1,2,4]triazolo[4,3-b]pyridazin-6-yl)-N-[2-fluoro-3-(trifluoromethyl)phenyl]-7,8-dihydro-5H-1,6-naphthyridin-3-amine]
22 | 86 | 219 | Cc1c(N2CCc3ncc(Nc4cccc(Cl)c4F)cc3C2)nn2cnnc2c1C [Compound 67, N-(3-chloro-2-fluoro-phenyl)-6-(7,8-dimethyl-[1,2,4]triazolo[4,3-b]pyridazin-6-yl)-7,8-dihydro-5H-1,6-naphthyridin-3-amine]

— patent publication US20250002507A1, “7,8-DIHYDRO-5H-1,6-NAPHTHYRIDINE DERIVATIVES AS POSITIVE ALLOSTERIC MODULATORS OF THE MUSCARINIC ACETYLCHOLINE RECEPTOR M4 FOR TREATING NEUROLOGICAL AND PSYCHIATRIC DISORDERS” (Vanderbilt University, priority 2021, published 2025)
